Measured values: US10189785B2, “Heterocyclic compound” (TAKEDA PHARMACEUTICAL COMPANY LIMITED, priority 2015, dated 2019)

Tests used:
[1] = system: human leukemia cell line PL-21 cancer-bearing mice; assay: Antitumor test using PL-21 cell (Test Example 3); assay type: in vivo, mouse
Protocol: The compound of the present invention was evaluated for its antitumor effect on human leukemia cell line PL-21 cancer-bearing mice by the following method.
The human leukemia cell line PL-21 (JCRB) was transplanted to each 6-week-old Icr-scid female mouse (CLEA Japan Inc.) by the subcutaneous injection of 3.0×10^6 cells. The tumor size of successfully engrafted tumor was measured 13 days after the transplantation. The tumor volume was calculated according to the following expression: Tumor volume=Major axis×Minor axis×Minor axis×(½)
Individuals in which the volume of the engrafted tumor reached 100 to 150 mm^3 were selected and used in the experiment as groups each involving 5 or 6 individuals. A 0.5% methylcellulose suspension of each test compound was orally administered to each mouse using the dose (indicated by single dose), the number of doses and the dosing period shown in Table 5. The tumor sizes at the day before the start of the administration and one day after the completion of the administration were measured and the tumor volume was calculated.
The rate of tumor growth (T/C (%)) in the test compound administration group compared with a control administration group was calculated according to the following expression: T/C (%)=(Tumor volume after the completion of the administration of the test compound administration group−Tumor volume before the start of the administration of the test compound administration group)/(Tumor volume after the completion of the administration of the control administration group−Tumor volume before the start of the administration of the control administration group)×100

[2] = system: lung adenocarcinoma cell line HCC4006; assay: HCC4006 cell growth inhibition test (Test Example 2); assay type: cell-based; settings: Homo sapiens, 120 h; 1 μM test compound; HCC4006 cells, culture for 5 days, CellTiter-Glo; read-out: Rate of inhibition (%) at 1 μM
In short: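 HCC4006 cells in RPMI-1640 with 10% FBS were seeded at 250 cells/well and dosed with compound the next day. After 5 days, viability was read by CellTiter-Glo luminescence. Percent inhibition was calculated against no-compound control and cell-free blank.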

[3] = target: T1, SPT (SPT2-expressing membrane fraction: human SPT1, human SPT2 and human ssSPTa) (Homo sapiens, UniProt O15269+O15270); assay: SPT enzyme inhibition test (Test Example 1); assay type: biochemical; settings: read-out: Rate of inhibition (%) at 1 μM
T1 construct: Full-length human SPT1, human SPT2 and human ssSPTa used; made in house; host or cells: FreeStyle 293 cells (pcDNA3.1 vectors, cotransfection); crude membrane fraction used
T1 sequence (O15269 1-473): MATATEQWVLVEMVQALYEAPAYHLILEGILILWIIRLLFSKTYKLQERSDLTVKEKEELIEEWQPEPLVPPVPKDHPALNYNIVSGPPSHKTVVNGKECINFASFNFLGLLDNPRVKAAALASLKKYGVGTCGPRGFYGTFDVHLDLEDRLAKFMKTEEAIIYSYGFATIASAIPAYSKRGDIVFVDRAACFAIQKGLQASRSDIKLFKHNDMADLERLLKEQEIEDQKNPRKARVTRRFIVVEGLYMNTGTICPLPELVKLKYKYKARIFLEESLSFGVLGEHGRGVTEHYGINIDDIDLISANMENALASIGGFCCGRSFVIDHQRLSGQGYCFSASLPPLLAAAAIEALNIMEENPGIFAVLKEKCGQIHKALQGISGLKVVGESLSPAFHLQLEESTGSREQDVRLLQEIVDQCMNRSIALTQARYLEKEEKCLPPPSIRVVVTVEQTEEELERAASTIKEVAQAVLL
T1 sequence (O15270 1-562): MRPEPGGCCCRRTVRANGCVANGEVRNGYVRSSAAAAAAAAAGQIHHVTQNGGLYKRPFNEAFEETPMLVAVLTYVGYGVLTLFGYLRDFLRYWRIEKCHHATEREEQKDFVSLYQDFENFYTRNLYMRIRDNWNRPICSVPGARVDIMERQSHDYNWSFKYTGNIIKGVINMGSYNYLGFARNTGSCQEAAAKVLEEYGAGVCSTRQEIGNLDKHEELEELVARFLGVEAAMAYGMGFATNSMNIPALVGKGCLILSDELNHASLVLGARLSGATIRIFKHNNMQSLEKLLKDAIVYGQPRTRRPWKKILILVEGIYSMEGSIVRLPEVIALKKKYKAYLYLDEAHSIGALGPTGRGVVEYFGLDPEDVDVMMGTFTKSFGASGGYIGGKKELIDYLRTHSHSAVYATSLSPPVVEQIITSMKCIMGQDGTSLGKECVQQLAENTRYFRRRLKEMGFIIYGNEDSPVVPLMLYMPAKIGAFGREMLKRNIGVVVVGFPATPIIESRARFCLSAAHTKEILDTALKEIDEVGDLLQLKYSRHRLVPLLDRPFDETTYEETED
T1 sequence (Q969W0 1-71 partner): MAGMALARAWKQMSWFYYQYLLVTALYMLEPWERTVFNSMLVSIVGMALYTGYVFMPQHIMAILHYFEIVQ
In short: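 Membrane fraction (100 μg/mL stock) of cells expressing human SPT1, SPT2 and ssSPTa was preincubated 60 min at RT with compound in 100 mM Hepes pH 8.0 containing EDTA, DTT and 0.01% BSA. Reaction ran 15 min at RT with 2 mM L-serine and 20 μM palmitoyl CoA (solution concentrations), then formic acid quench. Product measured by RapidFire mass spectrometry against a C17-sphinganine internal standard, giving % inhibition.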

[4] = 10 mg/kg orally, administered once every two days, 14 days
[5] = 30 mg/kg orally, administered once every two days, 14 days

With `Cn1nc(C(F)(F)F)cc1C(=O)N[C@@H]1CCN(C(=O)c2cc(Cl)c3nccnc3c2)C[C@@H]1c1ccccc1` [Example 81B, N-((3S,4R)-1-((8-Chloroquinoxalin-6-yl)carbonyl)-3-phenylpiperidin-4-yl)-1-methyl-3-(trifluoromethyl)-1H-pyrazole-5-carboxamide] the “T/C (%)” value ([1]; 10 mg/kg orally, administered every day for 3 days, 4-day drug holiday, 2 cycles) was 16%, the “T/C (%)” value [1, 4] was 63% and the “T/C (%)” value [1, 5] was 32%. The inhibition at 1 µM [2] was 54%.
For `COc1cc(C(=O)N2CC[C@H](NC(=O)c3ccccc3OC(F)(F)F)c3c2cnn3C(C)C)cnc1OC` [Example 162A, N-((7S)-4-((5,6-Dimethoxypyridin-3-yl)carbonyl)-1-isopropyl-4,5,6,7-tetrahydro-1H-pyrazolo[4,3-b]pyridin-7-yl)-2-(trifluoromethoxy)benzamide], the “T/C (%)” value [1, 4] was 52%, the “T/C (%)” value [1, 5] was 38% and the inhibition at 1 µM [2] was 56%.
For `Cc1cc(C(=O)N2CC[C@@H](NC(=O)c3ncccc3C(F)(F)F)[C@@H](c3ccccc3)C2)cn2c(C)cnc12` [Example 279B, N-((3S,4R)-1-((3,8-dimethylimidazo[1,2-a]pyridin-6-yl)carbonyl)-3-phenylpiperidin-4-yl)-3-(trifluoromethyl)pyridine-2-carboxamide], the inhibition at 1 µM [3] was 103% and the inhibition at 1 µM [2] was 44%.
Work on `COc1cc(C(=O)N2CC[C@@H](NC(=O)c3c(C)c(C)nn3C)[C@@H](c3ccccc3)C2)cc2nccnc12` [Example 324B, N-((3S,4R)-1-((8-methoxyquinoxalin-6-yl)carbonyl)-3-phenylpiperidin-4-yl)-1,3,4-trimethyl-1H-pyrazole-5-carboxamide] yielded an inhibition at 1 µM [3] of 99% and an inhibition at 1 µM [2] of 49%.
With `COc1cc(C(=O)N2CC[C@@H](NC(=O)c3cc(C4CC4)nn3C)[C@@H](c3ccccc3)C2)cc2nccnc12` [Example 330B, 3-cyclopropyl-N-((3S,4R)-1-((8-methoxyquinoxalin-6-yl)carbonyl)-3-phenylpiperidin-4-yl)-1-methyl-1H-pyrazole-5-carboxamide] the inhibition at 1 µM [3] was 102% and the inhibition at 1 µM [2] was 49%.
Work on `Cc1nn(C)c(Cl)c1C(=O)N[C@@H]1CCN(C(=O)c2cc(Cl)c3ncc(C)n3c2)C[C@@H]1c1ccccc1` [Example 342B, 5-chloro-N-((3S,4R)-1-((8-chloro-3-methylimidazo[1,2-a]pyridin-6-yl)carbonyl)-3-phenylpiperidin-4-yl)-1,3-dimethyl-1H-pyrazole-4-carboxamide] yielded an inhibition at 1 µM [3] of 101% and an inhibition at 1 µM [2] of 51%.
Compound `Cc1nn(C)c(Cl)c1C(=O)N[C@@H]1CCN(C(=O)c2cc(C)c3ncc(C)n3c2)C[C@@H]1c1ccccc1` [Example 344B, 5-chloro-N-((3S,4R)-1-((3,8-dimethylimidazo[1,2-a]pyridin-6-yl)carbonyl)-3-phenylpiperidin-4-yl)-1,3-dimethyl-1H-pyrazole-4-carboxamide] has an inhibition at 1 µM [3] of 103% and an inhibition at 1 µM [2] of 51%.
`COc1cc(C(=O)N2CC[C@@H](NC(=O)c3c(C)nn(C)c3Cl)[C@@H](c3ccccc3)C2)cc2nccnc12` [Example 345B, 5-chloro-N-((3S,4R)-1-((8-methoxyquinoxalin-6-yl)carbonyl)-3-phenylpiperidin-4-yl)-1,3-dimethyl-1H-pyrazole-4-carboxamide] showed an inhibition at 1 µM [3] of 102% and an inhibition at 1 µM [2] of 48%.
`COc1cc(C(=O)N2CC[C@@H](NC(=O)c3cc(C(F)(F)F)nn3C)[C@@H](c3ccc(F)cc3)C2)cc2nccnc12` [Example 352B, N-((3S,4R)-3-(4-fluorophenyl)-1-((8-methoxyquinoxalin-6-yl)carbonyl)piperidin-4-yl)-1-methyl-3-(trifluoromethyl)-1H-pyrazole-5-carboxamide] showed an inhibition at 1 µM [3] of 102% and an inhibition at 1 µM [2] of 50%.
For `COc1cc(C(=O)N2CC[C@@H](NC(=O)c3ccccc3OC(F)F)[C@H](c3ccc(F)cc3)C2)cnc1OC` [Example 361B, 2-(difluoromethoxy)-N-((3R,4R)-1-((5,6-dimethoxypyridin-3-yl)carbonyl)-3-(4-fluorophenyl)piperidin-4-yl)benzamide], the inhibition at 1 µM [3] was 102% and the inhibition at 1 µM [2] was 45%.
For `COc1cc(C(=O)N2CC[C@@H](NC(=O)c3cc(C(F)(F)F)nn3C)[C@@H](c3ccccc3)C2)cc2nccnc12` [Example 412B, N-((3S,4R)-1-((8-Methoxyquinoxalin-6-yl)carbonyl)-3-phenylpiperidin-4-yl)-1-methyl-3-(trifluoromethyl)-1H-pyrazole-5-carboxamide], the inhibition at 1 µM [3] was 102% and the inhibition at 1 µM [2] was 47%.
